In article PMC7265429, “Characterization of a new small-molecule inhibitor of HDAC6 in glioblastoma” (Cell Death & Disease, 2020) one finds α-tubulin hyperacetylation data, which are given here for one molecule.

The test system of this assay is acetyl-α-tubulin (HDAC6 main target) in U251-MG cells. The assay is described as follows: Western blot of acetyl-α-tubulin and cleaved PARP in U251-MG. The class given is cell-based, human. As to conditions: 10 nM, 48 h. As for the experimental part:
Immunoblots were performed following standard procedures. […] Detection was performed by chemiluminiscence using NOVEX ECL Chemi Substrate (ThermoFisher).
A general note: A western blot detects proteins with antibodies after separation by electrophoresis.

`O=C(CCCCCCC(=O)Nc1ccccc1)NO` [SAHA, Suberoylanilide hydroxamic acid]: the α-tubulin hyperacetylation entry is reported as “did not”.
